Laboratory results: patent US10829464B2, “Benzoheterocyclic alkylamine compounds and use thereof” (priority 2016, dated 2020)

tested on: S. aureus strain Newman; assay: IC50 determination of inhibition of staphyloxanthin synthesis; type: cell-based; conditions: Staphylococcus aureus; S. aureus strain Newman, Table 1; read-out: IC50, inhibitory activity on staphyloxanthin synthesis
Description: Selection of compound concentrations: based on the preliminary screening results, the ability of each compound to inhibit staphyloxanthin synthesis was determined. […] According to the assay results, 10 different concentration gradients were designed for each compound, such that the ability to inhibit staphyloxanthin synthesis comprised substantially from 0% to 100%.
Culture of the strains: single colonies of strain Newman and crtN mutant strain were picked from TSA plates, added into test tubes containing 4 mL of sterile TSB medium, and cultured at 37° C. and 250 rpm for 12 h for later use.
The relative level of staphyloxanthin synthesis at each concentration of the compound of the invention=A450 (sample)/A450 (negative control)*100%. With the molar concentration of the compound as the abscissa and the relative level of staphyloxanthin synthesis as the ordinate, a curve fitting of inhibitor concentration-inhibition rate (log(inhibitor) vs response) was performed in Graphpad prism 5.0 software, and the IC50 of the compound for inhibiting staphyloxanthin synthesis was calculated by software based on the fitting results.
S. aureus was selected for IC50 determination with respect to activity of inhibiting staphyloxanthin synthesis. […]

| SMILES | IC50 [nM] |
| --- | --- |
| CN(C/C=C/c1ccc(Cl)cc1)Cc1coc2ccccc12 [Compound IA-3, (E)-N-methyl-N-[(benzofuran-3-yl)methylene]-3-(4-chlorophenyl)prop-2-en-1-amine] | 4.9 ± 0.1 |
| CN(C/C=C/c1ccc(Cl)cc1Cl)Cc1coc2ccccc12 [Compound IA-11, (E)-N-methyl-N-[(benzofuran-3-yl)methylene]-3-(2,4-dichlorophenyl)prop-2-en-1-amine] | 6.2 ± 0.5 |
| FC(F)(F)c1ccc(/C=C/CNCc2coc3ccccc23)cc1 [Compound IB-1] | > 1000 |
| C/C=C/CN(C)Cc1coc2ccccc12 [Compound IA-23] | > 1000 |
| CN(C/C=C/c1ccccc1[N+](=O)[O-])Cc1coc2ccccc12 [Compound IA-22, (E)-N-methyl-N-[(benzofuran-3-yl)methylene]-3-(2-nitrophenyl)-prop-2-en-1-amine] | > 1000 |
| Cc1cccc(/C=C/CN(C)Cc2coc3ccccc23)c1 [Compound IA-37, (E)-N-methyl-N-[(benzofuran-3-yl)methylene]-3-(3-methylphenyl)-prop-2-en-1-amine] | > 1000 |
| CN(C/C=C/c1ccc(Br)cc1)Cc1coc2ccccc12 [Compound IA-5, (E)-N-methyl-N-[(benzofuran-3-yl)methylene]-3-(4-bromophenyl)prop-2-en-1-amine] | 2.5 ± 0.3 |
| CN(C/C=C/c1ccccc1F)Cc1coc2ccccc12 [Compound IA-28, (E)-N-methyl-N-[(benzofuran-3-yl)methylene]-3-(2-fluorophenyl)-prop-2-en-1-amine] | > 1000 |
| CN(C/C=C/c1cccc2ccccc12)Cc1coc2ccccc12 [Compound IA-10, (E)-N-methyl-N-[(benzofuran-3-yl)methylene]-3-(naphthalen-1-yl)prop-2-en-1-amine] | > 1000 |
| CN(C/C=C/c1ccc(C(F)F)cc1)Cc1coc2ccccc12 [Compound IA-6, (E)-N-methyl-N-[(benzofuran-3-yl)methylene]-3-(4-difluoromethylphenyl)-prop-2-en-1-amine] | 6.4 ± 0.1 |
| COC(=O)c1ccc(/C=C/CN(C)Cc2coc3ccccc23)cc1 [Compound IA-13, (E)-N-methyl-N-[(benzofuran-3-yl)methylene]-3-(4-methylcarboxylatephenyl)prop-2-en-1-amine] | 9.45 ± 0.75 |
| Cc1ccc(/C=C/CN(C)Cc2coc3ccccc23)cc1 [Compound IA-21, (E)-N-methyl-N-[(benzofuran-3-yl)methylene]-3-(4-methylphenyl)-prop-2-en-1-amine] | 9.9 ± 1.8 |
| CN(C/C=C/c1ccc(C(F)(F)F)cc1)Cc1csc2ccccc12 [Compound IA-41, (E)-N-(benzo[b]thiophen-3-ylmethyl)-N-methyl-3-(4-(trifluoromethyl)phenyl)prop-2-en-1-amine] | 52.1 ± 0.8 |
| CN(C/C=C/c1ccc(C(C)(C)C)cc1)Cc1coc2ccccc12 [Compound IA-27, (E)-N-methyl-N-[(benzofuran-3-yl)methylene]-3-(4-tert-butylphenyl)-prop-2-en-1-amine] | > 1000 |
| CN(C/C=C/c1ccc(C(F)(F)F)c(F)c1)Cc1coc2ccccc12 [Compound IA-9, (E)-N-methyl-N-[(benzofuran-3-yl)methylene]-3-(3-fluoro-4-trifluoromethyl-phenyl)prop-2-ene-1-the amine] | > 1000 |
| CN(C/C=C/c1cccc(C(F)(F)F)c1)Cc1coc2ccccc12 [Compound IA-18, (E)-N-methyl-N-[(benzofuran-3-yl)methylene]-3-(3-trifluoromethylphenyl)-prop-2-en-1-amine] | > 1000 |
| CN(C/C=C/c1ccc(C#N)cc1)Cc1coc2ccccc12 [Compound IA-24, (E)-N-Methyl-N-[(benzofuran-3-yl)methylene]-3-(4-cyanophenyl)-prop-2-en-1-amine] | 80.1 ± 4.7 |
| CN(C/C=C/C=C/c1ccc(-c2ccccc2)cc1)Cc1coc2ccccc12 [Compound IA-39, (2E,4E)-5-([1,1′-biphenyl]-4-yl)-N-(benzofuran-3-ylmethyl)-N-methylpenta-2,4-dien-1-amine] | > 1000 |
| CN(C/C=C/c1ccc(C(F)(F)F)cc1)Cc1cc2ccccc2s1 [Compound IF-2, (E)-N-(benzo[b]thiophen-2-ylmethyl)-N-methyl-3-(4-(trifluoromethyl)phenyl)prop-2-en-1-amine] | 95.3 ± 1.6 |
| CN(CC#Cc1ccc(-c2ccccc2)cc1)Cc1coc2ccccc12 [Compound ID-1] | > 1000 |
| CN(C/C=C/C1CCCCC1)Cc1coc2ccccc12 [Compound IA-32] | > 1000 |
| COc1ccccc1/C=C/CN(C)Cc1coc2ccccc12 [Compound IA-34, (E)-N-methyl-N-[(benzofuran-3-yl)methylene]-3-(2-methoxyphenyl)-prop-2-en-1-amine] | > 1000 |

| SMILES | IC50 [nM] |
| --- | --- |
| CN(C/C=C/c1ccc([N+](=O)[O-])cc1)Cc1coc2ccccc12 [Compound IA-16, (E)-N-methyl-N-[(benzofuran-3-yl)methylene]-3-(4-nitrophenyl)-prop-2-en-1-amine] | 9.5 ± 3.2 |
| Cc1ccccc1/C=C/CN(C)Cc1coc2ccccc12 [Compound IA-36, (E)-N-methyl-N-[(benzofuran-3-yl)methylene]-3-(2-methylphenyl)-prop-2-en-1-amine] | 86.4 ± 0.6 |
| CN(CCCc1ccc(-c2ccccc2)cc1)Cc1coc2ccccc12 [Compound IE-1, 3-([1,1′-biphenyl]-4-yl)-N-(benzofuran-3-ylmethyl)-N-methylpropan-1-amine] | > 1000 |
| COc1ccc(/C=C/CN(C)Cc2coc3ccccc23)cc1F [Compound IA-38, (E)-N-methyl-N-[(benzofuran-3-yl)methylene]-3-(3-fluoro-4-methoxyphenyl)-prop-2-en-1-amine] | > 1000 |
| CN(C/C=C/c1cccc(Cl)c1)Cc1coc2ccccc12 [Compound IA-12, (E)-N-methyl-N-[(benzofuran-3-yl)methylene]-3-(3-chlorophenyl)prop-2-en-1-amine] | > 1000 |
| CN(C/C=C/c1ccc(C(F)(F)F)cc1)Cc1coc2ccccc12 [Compound IA-2, (E)-N-methyl-N-[(benzofuran-3-yl)methylene]-3-(4-trifluoromethylphenyl)-prop-2-en-1-amine] | 9.8 ± 0.3 |
| CN(C/C=C/C1CCCC1)Cc1coc2ccccc12 [Compound IA-7, (E)-N-methyl-N-[(benzofuran-3-yl)methylene]-3-(4-cyclopentyl)prop-2-en-1-amine] | 397 ± 20.3 |
| CN(C/C=C/c1ccccc1)Cc1coc2ccccc12 [Compound IA-1, (E)-N-methyl-N-[(benzofuran-3-yl)methylene]-3-phenylprop-2-en-1-amine] | > 1000 |
| CCOc1ccc(/C=C/CN(C)Cc2coc3ccccc23)cc1 [Compound IA-17, (E)-N-methyl-N-[(benzofuran-3-yl)methylene]-3-(4-ethoxyphenyl)-prop-2-en-1-amine] | > 1000 |
| CN(CC/C=C/c1ccc(-c2ccccc2)cc1)Cc1coc2ccccc12 [Compound IA-40, (E)-4-([1,1′-biphenyl]-4-yl)-N-(benzofuran-3-ylmethyl)-N-methylbut-3-en-1-amine] | > 1000 |
| CN(C/C=C/c1cccc(F)c1)Cc1coc2ccccc12 [Compound IA-19, (E)-N-methyl-N-[(benzofuran-3-yl)methylene]-3-(3-fluorophenyl)-prop-2-en-1-amine] | > 1000 |
| CCN(C/C=C/c1ccc(C(F)(F)F)cc1)Cc1coc2ccccc12 [Compound IB-2, (E)-N-ethyl-N-[(benzofuran-3-yl)methylene]-3-(4-trifluoromethylphenyl)-prop-2-en-1-amine] | > 1000 |
| CN(C/C=C/c1cccs1)Cc1coc2ccccc12 [Compound IA-33, (E)-N-methyl-N-[(benzofuran-3-yl)methylene]-3-thiophen-2-en-1-amine] | > 1000 |
| COc1ccc(/C=C/CN(C)Cc2coc3ccccc23)c(F)c1 [Compound IA-35, (E)-N-methyl-N-[(benzofuran-3-yl)methylene]-3-(2-fluoro-4-methoxyphenyl)-prop-2-en-1-amine] | > 1000 |
| CN(C/C=C/c1ccc(C(F)(F)F)cc1)Cc1cc2ccccc2o1 [Compound IF-1, (E)-N-(benzofuran-2-ylmethyl)-N-methyl-3-(4-(trifluoromethyl)phenyl)prop-2-en-1-amine] | 70.3 ± 5.2 |
| COc1cccc(/C=C/CN(C)Cc2coc3ccccc23)c1 [Compound IA-20, (E)-N-methyl-N-[(benzofuran-3-yl)methylene]-3-(3-methoxyphenyl)-prop-2-en-1-amine] | > 1000 |
| CN(C/C=C/c1ccc(C(F)(F)F)cc1F)Cc1coc2ccccc12 [Compound IA-31, (E)-N-methyl-N-[(benzofuran-3-yl)methylene]-3-(2-fluoro-4-trifluoromethyl-phenyl)-prop-2-en-1-amine] | 9.2 ± 0.4 |
| CN(C/C=C/c1ccc2ccccc2c1)Cc1coc2ccccc12 [Compound IA-26, (E)-N-methyl-N-[(benzofuran-3-yl)methylene]-3-(2-naphthyl)-prop-2-en-1-amine] | 6.4 ± 0.6 |
| CN(C/C=C/c1ccccc1Cl)Cc1coc2ccccc12 [Compound IA-8, (E)-N-methyl-N-[(benzofuran-3-yl)methylene]-3-(2-chlorophenyl)prop-2-en-1-amine] | 360 ± 57.8 |
| CN(C/C=C/c1cccc([N+](=O)[O-])c1)Cc1coc2ccccc12 [Compound IA-29, (E)-N-methyl-N-[(benzofuran-3-yl)methylene]-3-(3-nitrophenyl)-prop-2-en-1-amine] | > 1000 |
| CN(C/C=C/c1ccc(F)cc1)Cc1coc2ccccc12 [Compound IA-4, (E)-N-methyl-N-[(benzofuran-3-yl)methylene]-3-(4-fluorophenyl)prop-2-en-1-amine] | 74.1 ± 2.7 |
